Biological target: P. falciparum apicoplast DNA polymerase (Pf-apPOL) (Plasmodium falciparum, UniProt Q8ILY1)
Test: Fluorescence-based high-throughput DNA polymerase assay (molecular beacon), primary screen and dose-response
Format: biochemical
Procedure, shortened: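 Single-point screening used 10 µM compound with 20 nM polymerase, 20 nM hairpin substrate and 6 µM dNTPs for 90 min at 25 °C. Confirmatory titrations (2.5–80 µM) followed fluorescence at three times, and IC50 was derived from a fit including a cooperativity term n.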

[1] = primary screen value of the 186 hits; unit not given; 90 min, 10 µM
[2] = supplemental file 2, sheet IC50 nontoxic compounds; Pf-apPOL

P. falciparum apicoplast DNA polymerase (Pf-apPOL), sequence (Q8ILY1 entry or part of it): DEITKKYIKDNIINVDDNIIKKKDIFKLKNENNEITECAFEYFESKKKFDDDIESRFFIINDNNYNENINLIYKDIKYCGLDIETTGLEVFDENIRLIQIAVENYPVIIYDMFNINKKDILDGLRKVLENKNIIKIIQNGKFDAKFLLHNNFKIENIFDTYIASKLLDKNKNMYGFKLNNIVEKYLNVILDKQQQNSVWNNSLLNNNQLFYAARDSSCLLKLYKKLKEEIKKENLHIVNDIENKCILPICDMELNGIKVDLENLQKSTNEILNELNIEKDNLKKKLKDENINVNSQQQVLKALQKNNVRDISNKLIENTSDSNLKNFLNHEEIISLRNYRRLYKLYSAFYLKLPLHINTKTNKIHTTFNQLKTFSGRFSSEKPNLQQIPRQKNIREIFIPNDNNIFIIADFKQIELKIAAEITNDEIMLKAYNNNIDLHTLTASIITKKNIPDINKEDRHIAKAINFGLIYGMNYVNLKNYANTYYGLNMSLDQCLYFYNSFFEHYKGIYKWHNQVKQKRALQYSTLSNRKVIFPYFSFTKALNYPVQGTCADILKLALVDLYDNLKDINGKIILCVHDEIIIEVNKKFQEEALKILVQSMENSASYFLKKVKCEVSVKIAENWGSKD

O=[N+]([O-])/C=C/c1ccc(-c2ccc(Br)cc2)o1 [Molecule 31, O=N(=O)/C=C/c1ccc(o1)c1ccc(cc1)Br]
% inhibition Apo pol 10' (DRC-1; 10'; concentration 2.5): 11.7941%
% inhibition Apo pol 10' (DRC-1; 10'; concentration 5): 25.8836%
% inhibition Apo pol 10' (DRC-1; 10'; concentration 10): 48.5342%
% inhibition Apo pol 10' (DRC-1; 10'; concentration 20): 74.9493%
% inhibition Apo pol 10' (DRC-1; 10'; concentration 40): 80.1629%
% inhibition Apo pol 10' (DRC-1; 10'; concentration 80): 73.881%
% inhibition Apol 90' (DRC-1; 90'; concentration 2.5): 4.734%
% inhibition Apol 90' (DRC-1; 90'; concentration 5): 14.8546%
% inhibition Apol 90' (DRC-1; 90'; concentration 10): 35.3896%
% inhibition Apol 90' (DRC-1; 90'; concentration 20): 66.0417%
% inhibition Apol 90' (DRC-1; 90'; concentration 40): 79.0677%
% inhibition Apol 90' (DRC-1; 90'; concentration 80): 80.1627%
% inhibition apPOL 180' (DRC-1; 180'; concentration 2.5): -3.116%
% inhibition apPOL 180' (DRC-1; 180'; concentration 5): 3.824%
% inhibition apPOL 180' (DRC-1; 180'; concentration 10): 20.4945%
% inhibition apPOL 180' (DRC-1; 180'; concentration 20): 51.8012%
% inhibition apPOL 180' (DRC-1; 180'; concentration 40): 73.5889%
% inhibition apPOL 180' (DRC-1; 180'; concentration 80): 81.6814%
% inhibition Apo pol 5' (DRC-2, 5', concentration 10 (unit not given)): 31%
% inhibition Apol 40' (DRC-2, 40', concentration 10 (unit not given)): 48%
% inhibition Apol 40' (DRC-2, 40', concentration 20 (unit not given)): 53%
% inhibition Apol 40' (DRC-2, 40', concentration 80 (unit not given)): 48%
% inhibition ApPOL 90' (DRC-2, 90', concentration 5 (unit not given)): 31%
% inhibition ApPOL 90' (DRC-2, 90', concentration 10 (unit not given)): 48%
% inhibition apPOL 180' (DRC-2, 180', concentration 5 (unit not given)): 21%
% inhibition apPOL 180' (DRC-2, 180', concentration 20 (unit not given)): 53%
% inhibition Apo pol 5' (DRC-2; 5'; concentration 2.5): 3.31%
% inhibition Apo pol 5' (DRC-2; 5'; concentration 5): 21%
% inhibition Apo pol 5' (DRC-2; 5'; concentration 5 (unit not given)): 21%
% inhibition Apo pol 5' (DRC-2; 5'; concentration 10): 31%
% inhibition Apo pol 5' (DRC-2; 5'; concentration 20): 26%
% inhibition Apo pol 5' (DRC-2; 5'; concentration 40): 18%
% inhibition Apo pol 5' (DRC-2; 5'; concentration 80): 2.17%
% inhibition Apol 40' (DRC-2; 40'; concentration 2.5): 6%
% inhibition Apol 40' (DRC-2; 40'; concentration 5): 33%
% inhibition Apol 40' (DRC-2; 40'; concentration 10): 48%
% inhibition Apol 40' (DRC-2; 40'; concentration 20): 53%
% inhibition Apol 40' (DRC-2; 40'; concentration 40): 54%
% inhibition Apol 40' (DRC-2; 40'; concentration 80): 48%
% inhibition ApPOL 90' (DRC-2; 90'; concentration 2.5): 4%
% inhibition ApPOL 90' (DRC-2; 90'; concentration 5): 31%
% inhibition ApPOL 90' (DRC-2; 90'; concentration 10): 48%
% inhibition ApPOL 90' (DRC-2; 90'; concentration 20): 56%
% inhibition ApPOL 90' (DRC-2; 90'; concentration 40): 60%
% inhibition ApPOL 90' (DRC-2; 90'; concentration 80): 59%
% inhibition apPOL 180' (DRC-2; 180'; concentration 2.5): -3.28%
% inhibition apPOL 180' (DRC-2; 180'; concentration 5): 21%
% inhibition apPOL 180' (DRC-2; 180'; concentration 10): 39%
% inhibition apPOL 180' (DRC-2; 180'; concentration 20): 53%
% inhibition apPOL 180' (DRC-2; 180'; concentration 40): 62%
% inhibition apPOL 180' (DRC-2; 180'; concentration 80): 66%
DNA Pol [1]: 57
DNA Pol (primary screen value, head "DNA Pol", unit not given; 90 min, 10 µM): 57

COc1ccc(-c2c(C(F)(F)F)nn3c(=O)cc(-c4cccc([N+](=O)[O-])c4)[nH]c23)cc1 [Molecule 16]
IC50 [2]: 9.3 µM

COc1ccccc1CC(=O)N1CCc2c(nc3cc(-c4ccccc4Cl)[nH]n3c2=O)C1 [Molecule 49]
IC50 [2]: 12.5 µM

O=C(NNC(=O)c1ccc(Cl)cc1)C(=O)NNC(=O)c1ccc(Cl)cc1 [Molecule 25]
IC50 [2]: 9.83 µM

O=C1c2ccccc2C(=O)c2c1oc1c3c(ccc21)OCN(C1CCCC1)C3 [KU0064306]
% inhibition Apo pol 10' (DRC-1; concentration 2.5; 10'): 14.122%
% inhibition Apol 90' (DRC-1; concentration 2.5; 90'): 11.9333%
% inhibition apPOL 180' (DRC-1; concentration 2.5; 180'): 9.893%
% inhibition Apo pol 10' (DRC-1; concentration 5; 10'): 20.6805%
% inhibition Apol 90' (DRC-1; concentration 5; 90'): 18.9077%
% inhibition apPOL 180' (DRC-1; concentration 5; 180'): 20.5988%
% inhibition Apo pol 10' (DRC-1; concentration 10; 10'): 48.1868%
% inhibition Apol 90' (DRC-1; concentration 10; 90'): 43.2395%
% inhibition apPOL 180' (DRC-1; concentration 10; 180'): 45.5926%
% inhibition Apo pol 10' (DRC-1; concentration 20; 10'): 73.389%
% inhibition Apol 90' (DRC-1; concentration 20; 90'): 72.2655%
% inhibition apPOL 180' (DRC-1; concentration 20; 180'): 74.7554%
% inhibition Apo pol 10' (DRC-1; concentration 40; 10'): 87.7037%
% inhibition Apol 90' (DRC-1; concentration 40; 90'): 89.2086%
% inhibition apPOL 180' (DRC-1; concentration 40; 180'): 90.8162%
% inhibition Apo pol 10' (DRC-1; concentration 80 (unit not given); 10'): 89.3485%
% inhibition Apol 90' (DRC-1; concentration 80; 90'): 90.7443%
% inhibition apPOL 180' (DRC-1; concentration 80; 180'): 92.3974%
% inhibition Apo pol 5' (DRC-2; 5'; concentration 5): 23%
% inhibition Apo pol 5' (DRC-2; 5'; concentration 40): 47%
% inhibition Apol 40' (DRC-2; 40'; concentration 2.5): 17%
% inhibition Apol 40' (DRC-2; 40'; concentration 80): 60%
% inhibition ApPOL 90' (DRC-2; 90'; concentration 2.5): 17%
% inhibition ApPOL 90' (DRC-2; 90'; concentration 10): 47%
% inhibition ApPOL 90' (DRC-2; 90'; concentration 20): 60%
% inhibition apPOL 180' (DRC-2; 180'; concentration 5): 23%
% inhibition apPOL 180' (DRC-2; 180'; concentration 10): 47%
% inhibition Apo pol 5' (DRC-2; concentration 2.5; 5'): 16%
% inhibition Apol 40' (DRC-2; concentration 2.5; 40'): 17%
% inhibition ApPOL 90' (DRC-2; concentration 2.5; 90'): 17%
% inhibition apPOL 180' (DRC-2; concentration 2.5; 180'): 15%
% inhibition Apo pol 5' (DRC-2; concentration 5; 5'): 23%
% inhibition Apol 40' (DRC-2; concentration 5; 40'): 24%
% inhibition ApPOL 90' (DRC-2; concentration 5; 90'): 25%
% inhibition apPOL 180' (DRC-2; concentration 5; 180'): 23%
% inhibition Apo pol 5' (DRC-2; concentration 10; 5'): 42%
% inhibition Apol 40' (DRC-2; concentration 10; 40'): 46%
% inhibition ApPOL 90' (DRC-2; concentration 10; 90'): 47%
% inhibition apPOL 180' (DRC-2; concentration 10; 180'): 47%
% inhibition Apo pol 5' (DRC-2; concentration 20; 5'): 43%
% inhibition Apol 40' (DRC-2; concentration 20; 40'): 55%
% inhibition ApPOL 90' (DRC-2; concentration 20; 90'): 60%
% inhibition apPOL 180' (DRC-2; concentration 20; 180'): 63%
% inhibition Apo pol 5' (DRC-2; concentration 40; 5'): 47%
% inhibition Apol 40' (DRC-2; concentration 40; 40'): 62%
% inhibition ApPOL 90' (DRC-2; concentration 40; 90'): 68%
% inhibition apPOL 180' (DRC-2; concentration 40; 180'): 72%
% inhibition Apo pol 5' (DRC-2; concentration 80; 5'): 44%
% inhibition Apol 40' (DRC-2; concentration 80; 40'): 60%
% inhibition ApPOL 90' (DRC-2; concentration 80; 90'): 65%
% inhibition apPOL 180' (DRC-2; concentration 80; 180'): 70%
DNA Pol [1]: 61
DNA Pol (primary screen value; head prints only 'DNA Pol'; 90 min, 10 µM): 61

CSC(C)C(=O)C=CN(C)C (stereo not drawn) [Molecule 71]
IC50 [2]: 26.9 µM

O=c1cc(-c2ccccc2)oc2c(O)c(O)ccc12 [Molecule 84]
IC50 [2]: 32.2 µM

Reference: article PMC9090415, “Discovery of small molecule inhibitors of Plasmodium falciparum apicoplast DNA polymerase” (Journal of Enzyme Inhibition and Medicinal Chemistry, 2022)
